Results published in US20260007133A1, “HERBICIDAL COMPOSITION COMPRISING AZINE COMPOUNDS” (BASF SE, priority 2022, published 2026).
Where two headings read alike, the source gives them in different places.

Legend:
Assay type in all cases: in vivo
[1] = tested on: Abutilon theophrasti; assay: Greenhouse pre-emergence (PRE) herbicidal test on ABUTH; settings: Abutilon theophrasti, pre-emergence
Method in brief: (§1)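 Visual 0–100 rating at 20 days after treatment; 0 = normal growth, 100 = no emergence or complete kill of shoots. Pre-emergent application to seeded pots of loamy sand (~3.0% humus), species-dependent temperature 10-25° C or 20-35° C.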

[2] = tested on: Amaranthus retroflexus; assay: Greenhouse pre-emergence (PRE) herbicidal test on AMARE; settings: Amaranthus retroflexus, pre-emergence
Method in brief: as §1

[3] = tested on: Ambrosia artemisiifolia; assay: Greenhouse pre-emergence (PRE) herbicidal test on AMBEL; settings: Ambrosia artemisiifolia, pre-emergence; for inhibition at 4 g/ha: use rate 4 gai/ha; for inhibition at 8 g/ha: use rate 8 gai/ha
[4] = tested on: Avena fatua; assay: Greenhouse pre-emergence (PRE) herbicidal test on AVEFA; settings: use rate 8 gai/ha
Method in brief: (§2)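 Damage was rated visually on a 0 to 100 scale at 20 days after treatment, where 0 meant normal growth and 100 meant no emergence or complete kill of above-ground parts. Compounds were applied in water to freshly sown loamy-sand pots.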

[5] = tested on: Euphorbia heterophylla; assay: Greenhouse pre-emergence (PRE) herbicidal test on EPHHL; settings: Euphorbia heterophylla, pre-emergence
Method in brief: as §1

[6] = tested on: Galium aparine; assay: Greenhouse pre-emergence (PRE) herbicidal test on GALAP; settings: Galium aparine, pre-emergence; PRE; GALAP; use rate 8 gai/ha
Method in brief: as §2

[7] = tested on: Geranium pusillum; assay: Greenhouse pre-emergence (PRE) herbicidal test on GERPU; settings: Geranium pusillum, pre-emergence, use rate 8 gai/ha
Method in brief: as §2

[8] = tested on: Lolium multiflorum; assay: Greenhouse pre-emergence (PRE) herbicidal test on LOLMU
Method in brief: as §1

SMILES: COc1c(Br)cc(F)c(F)c1Nc1nc(N)nc(C(C)(C)F)n1 [Compound I-2]
- pest or weed control at 2 g/ha ([1]; 432 h, PRE, ABUTH, I-2 solo 2 gai/ha, 18 DAT): 30%
- pest or weed control at 8 g/ha ([1]; 432 h, PRE, ABUTH, I-2 solo 8 gai/ha, 18 DAT): 50%
- inhibition at 8 g/ha ([1]; 480 h, ABUTH PRE, 20 DAT, use rate 8 gai/ha, read-out: % activity): 65%
- pest or weed control at 2 g/ha ([1]; 480 h, PRE, 2 gai/ha, 20 DAT): 10%
- pest or weed control at 8 g/ha ([1]; 480 h, PRE, 8 gai/ha, 20 DAT): 65%
- inhibition at 2 g/ha ([1]; 480 h, PRE, ABUTH, 2 gai/ha, 20 DAT, read-out: % activity solo application): 10%
- inhibition at 8 g/ha ([1]; 480 h, PRE, ABUTH, 8 gai/ha, 20 DAT, read-out: % activity solo application): 55%
- inhibition at 8 g/ha ([1]; 480 h, PRE, ABUTH, use rate 8 gai/ha, 20 DAT, read-out: solo application % activity): 55%
- inhibition at 2 g/ha ([1]; ABUTH PRE, use rate 2 gai/ha, read-out: % activity): 20%
- inhibition at 2 g/ha ([1]; PRE, ABUTH, use rate 2 gai/ha, read-out: % activity): 20%
- pest or weed control at 2 g/ha ([2]; 432 h, PRE, AMARE, I-2 solo 2 gai/ha, 18 DAT): 80%
- inhibition at 2 g/ha ([2]; 480 h, AMARE PRE, 20 DAT, use rate 2 gai/ha, read-out: % activity): 70%
- pest or weed control at 2 g/ha ([2]; 480 h, PRE, 2 gai/ha, 20 DAT): 70%
- inhibition at 2 g/ha ([2]; 480 h, PRE, AMARE, 2 gai/ha, 20 DAT, read-out: % activity solo application): 70%
- inhibition at 2 g/ha ([2]; 480 h, PRE, AMARE, use rate 2 gai/ha, 20 DAT, read-out: solo application % activity): 70%
- inhibition at 2 g/ha ([3]; 240 h, PRE, use rate 2 gai/ha, 10 DAT, read-out: % activity): 20%
- inhibition at 4 g/ha ([3]; 240 h, PRE, 10 DAT): 20%
- inhibition at 8 g/ha ([3]; 240 h, PRE, 10 DAT, read-out: % activity): 35%
- inhibition at 16 g/ha ([3]; 240 h, PRE, use rate 16 gai/ha, 10 DAT): 50%
- pest or weed control at 8 g/ha ([3]; 432 h, PRE, AMBEL, I-2 solo 8 gai/ha, 18 DAT): 70%
- inhibition at 2 g/ha ([3]; 480 h, AMBEL PRE, 20 DAT, use rate 2 gai/ha, read-out: % activity): 35%
- inhibition at 8 g/ha ([3]; 480 h, AMBEL PRE, 20 DAT, read-out: % activity): 90%
- pest or weed control at 8 g/ha ([3]; 480 h, PRE, 8 gai/ha, 20 DAT): 90%
- inhibition at 2 g/ha ([3]; 480 h, PRE, AMBEL, 2 gai/ha, 20 DAT, read-out: % activity solo application): 0%
- inhibition at 2 g/ha ([3]; 480 h, PRE, AMBEL, use rate 2 gai/ha, 20 DAT, read-out: solo application % activity): 0%
- inhibition at 8 g/ha ([3]; 480 h, PRE, 20 DAT, read-out: % activity): 80%
- inhibition at 2 g/ha ([3]; AMBEL PRE, use rate 2 gai/ha, read-out: % activity): 30%
- inhibition at 4 g/ha ([3]; PRE, AMBEL): 20%
- inhibition at 8 g/ha [4]: 50%
- pest or weed control at 2 g/ha ([5]; 432 h, PRE, EPHHL, I-2 solo 2 gai/ha, 18 DAT): 10%
- pest or weed control at 8 g/ha ([5]; 432 h, PRE, EPHHL, I-2 solo 8 gai/ha, 18 DAT): 35%
- inhibition at 8 g/ha ([5]; 480 h, EPHHL PRE, 20 DAT, use rate 8 gai/ha, read-out: % activity): 10%
- pest or weed control at 2 g/ha ([5]; 480 h, PRE, 2 gai/ha, 20 DAT): 10%
- pest or weed control at 8 g/ha ([5]; 480 h, PRE, 8 gai/ha, 20 DAT): 10%
- inhibition at 2 g/ha ([5]; 480 h, PRE, EPHHL, 2 gai/ha, 20 DAT, read-out: % activity solo application): 0%
- inhibition at 8 g/ha ([5]; 480 h, PRE, EPHHL, 8 gai/ha, 20 DAT, read-out: % activity solo application): 15%
- inhibition at 2 g/ha ([5]; 480 h, PRE, EPHHL, use rate 2 gai/ha, 20 DAT, read-out: solo application % activity): 0%
- inhibition at 8 g/ha ([5]; 480 h, PRE, EPHHL, use rate 8 gai/ha, 20 DAT, read-out: solo application % activity): 15%
- inhibition at 8 g/ha [6]: 15%
- inhibition at 8 g/ha ([7]; 480 h, PRE, GERPU, 20 DAT): 80%
- inhibition at 8 g/ha ([7]; GERPU PRE): 0%
- inhibition at 8 g/ha ([7]; PRE, GERPU): 0%
- % activity ([8]; LOLMU PRE, use rate 2 gai/ha): 30%
- pest or weed control at 2 g/ha ([8]; Lolium multiflorum, pre-emergence, 432 h, PRE, LOLMU, I-2 solo 2 gai/ha, 18 DAT, read-out: % activity): 0%
